Results from PubChem BioAssay (NCI).
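Compound exposure: 48 hours, 5 concentrations, 96-well plates. Here, GI50 denotes the concentration required for 50% inhibition of growth. TGI: total growth inhibition.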

Columns and labels:
Experiment in all cases: growth of human tumour cells (NCI), 48 h
786-0 renal = test system: 786-0 renal
A498 renal = test system: A498 renal
A549 NSCLC = test system: A549 NSCLC
ACHN renal = test system: ACHN renal
CAKI-1 renal = test system: CAKI-1 renal
CCRF-CEM leukemia = test system: CCRF-CEM leukemia
COLO 205 colon = test system: COLO 205 colon
DU-145 prostate = test system: DU-145 prostate
EKVX NSCLC = test system: EKVX NSCLC
HCC-2998 colon = test system: HCC-2998 colon
HCT-116 colon = test system: HCT-116 colon
HCT-15 colon = test system: HCT-15 colon
HL-60(TB) leukemia = test system: HL-60(TB) leukemia
HOP-62 NSCLC = test system: HOP-62 NSCLC
HOP-92 NSCLC = test system: HOP-92 NSCLC
HS 578T breast = test system: HS 578T breast
HT29 colon = test system: HT29 colon
IGROV1 ovarian = test system: IGROV1 ovarian
KM12 colon = test system: KM12 colon
LOX IMVI melanoma = test system: LOX IMVI melanoma
M14 melanoma = test system: M14 melanoma
MALME-3M melanoma = test system: MALME-3M melanoma
MCF7 breast = test system: MCF7 breast
MDA-MB-231 breast = test system: MDA-MB-231 breast
MDA-MB-435 = test system: MDA-MB-435
MDA-N = test system: MDA-N
MOLT-4 leukemia = test system: MOLT-4 leukemia
NCI-H226 lung = test system: NCI-H226 lung
NCI-H23 lung = test system: NCI-H23 lung
NCI-H460 lung = test system: NCI-H460 lung
NCI/ADR-RES ovarian = test system: NCI/ADR-RES ovarian
OVCAR-3 ovarian = test system: OVCAR-3 ovarian
OVCAR-4 ovarian = test system: OVCAR-4 ovarian
OVCAR-5 ovarian = test system: OVCAR-5 ovarian
OVCAR-8 ovarian = test system: OVCAR-8 ovarian
PC-3 prostate = test system: PC-3 prostate
RXF 393 renal = test system: RXF 393 renal
SF-268 CNS = test system: SF-268 CNS
SF-295 CNS = test system: SF-295 CNS
SF-539 CNS = test system: SF-539 CNS
SK-MEL-2 melanoma = test system: SK-MEL-2 melanoma
SK-MEL-28 melanoma = test system: SK-MEL-28 melanoma
SK-MEL-5 melanoma = test system: SK-MEL-5 melanoma
SK-OV-3 ovarian = test system: SK-OV-3 ovarian
SN12C renal = test system: SN12C renal
SNB-19 CNS = test system: SNB-19 CNS
SR leukemia = test system: SR leukemia
SW-620 colon = test system: SW-620 colon
T-47D breast = test system: T-47D breast
TK-10 renal = test system: TK-10 renal
UACC-257 melanoma = test system: UACC-257 melanoma
UACC-62 melanoma = test system: UACC-62 melanoma
BT-549 breast = test system: BT-549 breast
K-562 leukemia = test system: K-562 leukemia
NCI-H522 lung = test system: NCI-H522 lung
RPMI-8226 leukemia = test system: RPMI-8226 leukemia
SNB-75 CNS = test system: SNB-75 CNS
U251 CNS = test system: U251 CNS
UO-31 renal = test system: UO-31 renal

## CC(C)n1c(=O)c2nn3c(=O)n(C(C)C)c(=O)c3nn2c1=O
786-0 renal
  TGI: > 100 µM
A498 renal
  TGI: > 100 µM
A549 NSCLC
  TGI: > 100 µM
ACHN renal
  TGI: > 100 µM
CAKI-1 renal
  TGI: > 100 µM
CCRF-CEM leukemia
  TGI: > 100 µM
COLO 205 colon
  TGI: > 100 µM
DU-145 prostate
  TGI: > 100 µM
EKVX NSCLC
  TGI: > 100 µM
HCC-2998 colon
  TGI: > 100 µM
HCT-116 colon
  TGI: > 100 µM
HCT-15 colon
  TGI: > 100 µM
HL-60(TB) leukemia
  TGI: > 100 µM
HOP-62 NSCLC
  TGI: > 100 µM
HOP-92 NSCLC
  TGI: > 100 µM
HS 578T breast
  TGI: > 100 µM
HT29 colon
  TGI: > 100 µM
IGROV1 ovarian
  TGI: > 100 µM
KM12 colon
  TGI: > 100 µM
LOX IMVI melanoma
  TGI: > 100 µM
M14 melanoma
  TGI: > 100 µM
MALME-3M melanoma
  TGI: > 100 µM
MCF7 breast
  TGI: > 100 µM
MDA-MB-231 breast
  TGI: > 100 µM
MDA-MB-435
  TGI: > 100 µM
MDA-N
  TGI: > 100 µM
MOLT-4 leukemia
  TGI: > 100 µM
NCI-H226 lung
  TGI: > 100 µM
NCI-H23 lung
  TGI: > 100 µM
NCI-H460 lung
  TGI: > 100 µM
NCI/ADR-RES ovarian
  TGI: > 100 µM
OVCAR-3 ovarian
  TGI: > 100 µM
OVCAR-4 ovarian
  TGI: > 100 µM
OVCAR-5 ovarian
  TGI: > 100 µM
OVCAR-8 ovarian
  TGI: > 100 µM
PC-3 prostate
  TGI: > 100 µM
RXF 393 renal
  TGI: > 100 µM
SF-268 CNS
  TGI: > 100 µM
SF-295 CNS
  TGI: > 100 µM
SF-539 CNS
  TGI: > 100 µM
SK-MEL-2 melanoma
  TGI: > 100 µM
SK-MEL-28 melanoma
  TGI: > 100 µM
SK-MEL-5 melanoma
  TGI: > 100 µM
SK-OV-3 ovarian
  TGI: > 100 µM
SN12C renal
  TGI: > 100 µM
SNB-19 CNS
  TGI: > 100 µM
SR leukemia
  TGI: > 100 µM
SW-620 colon
  TGI: > 100 µM
T-47D breast
  TGI: > 100 µM
TK-10 renal
  TGI: > 100 µM
UACC-257 melanoma
  TGI: > 100 µM
UACC-62 melanoma
  TGI: > 100 µM

## O=C1C=C(c2cc(Br)c(O)c(Br)c2)/C(=C/c2cc(Br)c(O)c(Br)c2)O1
786-0 renal
  GI50: 35.8 µM
  TGI: > 75 µM
A498 renal
  GI50: 20.1 µM
  TGI: 57.2 µM
A549 NSCLC
  GI50: 11.2 µM
  TGI: 49.3 µM
ACHN renal
  GI50: 29.4 µM
  TGI: > 75 µM
BT-549 breast
  GI50: 28.6 µM
  TGI: > 75 µM
CAKI-1 renal
  GI50: 34.3 µM
  TGI: > 75 µM
CCRF-CEM leukemia
  GI50: 7.38 µM
  TGI: 73.8 µM
COLO 205 colon
  GI50: 29.8 µM
  TGI: > 75 µM
DU-145 prostate
  GI50: 31.7 µM
  TGI: > 75 µM
EKVX NSCLC
  GI50: 54.1 µM
  TGI: > 75 µM
HCC-2998 colon
  GI50: 56.1 µM
  TGI: > 75 µM
HCT-116 colon
  GI50: 14.8 µM
  TGI: 43.8 µM
HCT-15 colon
  GI50: 28.8 µM
  TGI: > 75 µM
HOP-92 NSCLC
  GI50: 15.4 µM
  TGI: > 75 µM
HS 578T breast
  GI50: 33.9 µM
  TGI: > 75 µM
HT29 colon
  GI50: 39.2 µM
  TGI: > 75 µM
IGROV1 ovarian
  GI50: 17.8 µM
  TGI: > 75 µM
K-562 leukemia
  GI50: 24 µM
  TGI: > 75 µM
KM12 colon
  GI50: 37.6 µM
  TGI: > 75 µM
LOX IMVI melanoma
  GI50: 14.9 µM
  TGI: 43.2 µM
M14 melanoma
  GI50: 17.8 µM
  TGI: > 75 µM
MALME-3M melanoma
  GI50: 41.5 µM
  TGI: > 75 µM
MCF7 breast
  GI50: 37 µM
  TGI: > 75 µM
MDA-MB-231 breast
  GI50: 32 µM
  TGI: > 75 µM
MDA-MB-435
  GI50: 33.6 µM
  TGI: > 75 µM
MDA-N
  GI50: 33 µM
  TGI: > 75 µM
MOLT-4 leukemia
  GI50: 18.4 µM
  TGI: 51.9 µM
NCI-H226 lung
  GI50: 43.6 µM
  TGI: > 75 µM
NCI-H23 lung
  GI50: 35.2 µM
  TGI: > 75 µM
NCI-H460 lung
  GI50: 24.1 µM
  TGI: > 75 µM
NCI-H522 lung
  GI50: 30.4 µM
  TGI: > 75 µM
NCI/ADR-RES ovarian
  GI50: 40.3 µM
  TGI: > 75 µM
OVCAR-3 ovarian
  GI50: 21 µM
  TGI: 71 µM
OVCAR-4 ovarian
  GI50: 50.4 µM
  TGI: > 75 µM
OVCAR-5 ovarian
  GI50: 64.8 µM
  TGI: > 75 µM
OVCAR-8 ovarian
  GI50: 29 µM
  TGI: > 75 µM
PC-3 prostate
  GI50: 25 µM
  TGI: > 75 µM
RPMI-8226 leukemia
  GI50: 22.2 µM
  TGI: 66.7 µM
RXF 393 renal
  GI50: 1.82 µM
  TGI: 23.6 µM
SF-268 CNS
  GI50: 30.5 µM
  TGI: > 75 µM
SF-295 CNS
  GI50: 29.4 µM
  TGI: > 75 µM
SF-539 CNS
  GI50: 24 µM
  TGI: > 75 µM
SK-MEL-2 melanoma
  GI50: 38.5 µM
  TGI: > 75 µM
SK-MEL-28 melanoma
  GI50: 34.8 µM
  TGI: > 75 µM
SK-MEL-5 melanoma
  GI50: 29 µM
  TGI: > 75 µM
SN12C renal
  GI50: 36.5 µM
  TGI: > 75 µM
SNB-19 CNS
  GI50: 14 µM
  TGI: > 75 µM
SNB-75 CNS
  GI50: 39 µM
  TGI: > 75 µM
SW-620 colon
  GI50: 29.7 µM
  TGI: > 75 µM
T-47D breast
  GI50: > 75 µM
  TGI: > 75 µM
TK-10 renal
  GI50: 35.8 µM
  TGI: > 75 µM
U251 CNS
  GI50: 26.4 µM
  TGI: > 75 µM
UACC-257 melanoma
  GI50: > 75 µM
  TGI: > 75 µM
UACC-62 melanoma
  GI50: 16.8 µM
  TGI: 38.2 µM
UO-31 renal
  GI50: 19.2 µM
  TGI: > 75 µM
